Consider ten compounds from patent publication US11673889B2, “Substituted imidazo[4,5-c][1,8]naphthyridines as phosphodiesterase inhibitors” (Nanjing Zhengxiang Pharmaceuticals Co., Ltd., priority 2019, dated 2023).

The nature of data set [1]: Pharmacokinetics in mice. The settings on record: mouse, plasma, male CD-1 mice; for AUC / clearance / half-life / Vd: 1 mg/kg, iv; for Vd: read-out: Vdss; for bioavailability: oral gavage (PO) at 5 mg/kg vs IV 1 mg/kg. It counts as in vivo. How it is done:
A dosing solution of test sample was prepared at 1.0 mg/mL in 5% DMSO/40% PEG400/55% water and administered to male CD-1 mice (4-6 weeks old, 20-30 grams, 3 animals each group) via intravenous (IV) bolus at 1 mg/kg and by oral gavage (PO) at 5 mg/kg. Blood samples (˜0.03 mL each time point) were collected via the jugular vein into tubes containing sodium heparin as the anticoagulant at 0.033, 0.083, 0.25, 0.5, 1, 2, 4, 8 and 24 hours post dose for IV administration and 0.083, 0.25, 0.5, 1, 2, 4, 8 and 24 hours post dose for PO administration. The blood samples were then centrifuged for 5 minutes in a centrifuge refrigerated at 4° C. The resultant plasma samples were analyzed using LC/MS/MS to determine concentrations of test sample. Non-compartmental model with WinNonlin (Phoenix™, version 8.0) software was used to calculate pharmacokinetic (PK) parameters.

Data set [2] has as its target T1, human soluble ENPP1 (Homo sapiens, UniProt P22413).
T1 construct: 20 ng of human soluble ENPP1
T1 sequence (P22413 103-925 limits assumed): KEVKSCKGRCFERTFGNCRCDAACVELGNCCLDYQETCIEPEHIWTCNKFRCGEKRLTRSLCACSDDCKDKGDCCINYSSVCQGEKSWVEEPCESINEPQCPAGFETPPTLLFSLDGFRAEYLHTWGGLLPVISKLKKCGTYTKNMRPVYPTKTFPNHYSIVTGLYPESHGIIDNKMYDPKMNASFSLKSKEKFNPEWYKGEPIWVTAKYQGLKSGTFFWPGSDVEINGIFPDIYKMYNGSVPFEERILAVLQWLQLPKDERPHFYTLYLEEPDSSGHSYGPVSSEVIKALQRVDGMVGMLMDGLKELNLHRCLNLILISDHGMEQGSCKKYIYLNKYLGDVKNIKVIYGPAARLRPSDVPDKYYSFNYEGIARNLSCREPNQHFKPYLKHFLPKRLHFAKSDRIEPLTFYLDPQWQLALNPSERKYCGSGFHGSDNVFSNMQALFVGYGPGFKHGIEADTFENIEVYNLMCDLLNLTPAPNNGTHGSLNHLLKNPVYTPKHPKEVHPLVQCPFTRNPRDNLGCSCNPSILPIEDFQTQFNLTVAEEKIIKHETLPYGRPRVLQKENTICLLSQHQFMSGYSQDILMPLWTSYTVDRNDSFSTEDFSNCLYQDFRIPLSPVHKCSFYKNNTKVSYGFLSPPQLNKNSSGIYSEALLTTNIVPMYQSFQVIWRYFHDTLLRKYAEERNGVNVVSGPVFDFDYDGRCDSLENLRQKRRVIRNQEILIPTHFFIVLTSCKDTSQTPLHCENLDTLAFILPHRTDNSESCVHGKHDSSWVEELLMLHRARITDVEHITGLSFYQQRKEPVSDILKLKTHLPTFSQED
Kind of data set: ENPP1 activity assay using p-Nitrophenyl-5′-AMP as a substrate. It counts as biochemical. A digest of the protocol: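 Absorbance at 405 nm tracks p-nitrophenol from AMP-pNP hydrolysis after 1 h at room temperature, substrate added as 3 mM (2× final) following 30 min enzyme–compound preincubation. Enzyme: 35 ng human soluble ENPP1. IC50 fitted (variable-slope four-parameter) from percent inhibition normalized to max and blank.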

Data set [3] deals with T1, human soluble ENPP1. As to the kind of experiment: ENPP1 activity assay using p-Nitrophenyl-5′-TMP as a substrate. It counts as biochemical. In a few lines: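 Percent inhibition, set against uninhibited-enzyme and blank wells, was fitted to a four-parameter variable-slope model for IC50. Chromogenic read-out was p-nitrophenol released from TMP-pNP, added as a 2 mM […] solution for 1 h at RT. Before that, 20 ng soluble ENPP1 sat 30 min with compound.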

Data set [4] concerns the target T2, ENPP-1, MDA-MB-231 cells (Homo sapiens, UniProt P22413).
T2 sequence (P22413 1-925): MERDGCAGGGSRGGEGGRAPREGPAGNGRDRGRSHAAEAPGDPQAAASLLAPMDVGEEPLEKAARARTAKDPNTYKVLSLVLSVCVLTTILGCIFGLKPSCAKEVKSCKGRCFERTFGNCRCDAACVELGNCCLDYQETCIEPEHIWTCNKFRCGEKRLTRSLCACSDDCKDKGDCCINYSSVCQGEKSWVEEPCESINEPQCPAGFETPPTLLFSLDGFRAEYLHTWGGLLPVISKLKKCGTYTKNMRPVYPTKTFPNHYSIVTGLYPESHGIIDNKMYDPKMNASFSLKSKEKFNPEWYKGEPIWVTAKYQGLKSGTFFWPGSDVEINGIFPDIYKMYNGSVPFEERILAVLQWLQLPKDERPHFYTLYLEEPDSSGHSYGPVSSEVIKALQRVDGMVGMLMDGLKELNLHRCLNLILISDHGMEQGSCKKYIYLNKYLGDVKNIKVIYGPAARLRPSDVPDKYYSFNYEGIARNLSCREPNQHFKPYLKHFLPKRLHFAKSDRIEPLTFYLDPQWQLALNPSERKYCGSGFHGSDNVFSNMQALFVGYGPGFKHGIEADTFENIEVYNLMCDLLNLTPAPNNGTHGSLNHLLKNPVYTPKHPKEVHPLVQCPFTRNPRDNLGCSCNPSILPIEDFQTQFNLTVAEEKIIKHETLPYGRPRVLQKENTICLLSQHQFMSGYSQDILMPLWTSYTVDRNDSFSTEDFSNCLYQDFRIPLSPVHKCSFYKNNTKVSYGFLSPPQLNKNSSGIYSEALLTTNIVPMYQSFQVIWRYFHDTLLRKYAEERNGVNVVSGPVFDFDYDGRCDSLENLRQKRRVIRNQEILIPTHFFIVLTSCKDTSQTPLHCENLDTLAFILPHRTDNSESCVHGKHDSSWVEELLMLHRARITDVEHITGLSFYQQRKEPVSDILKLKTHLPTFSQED
As to the kind of experiment: cell-based. The settings on record: for inhibition at 20 µM: MDA-MB-231, read-out: % Inhibition (at 20 μM).

Molecules are shown by their SMILES.

What is called AUC is concentration integrated over time. Higher therefore signals more exposure. One may read the clearance as a measure of how efficiently the substance is removed, as volume per time. High values mean efficient removal, low ones inefficient removal. For orientation: half-life means how long it takes for the measured level to halve. In general, IC50 refers to the point on the concentration scale where inhibition reaches its midpoint. The term inhibition denotes how much of the control response was suppressed. For the compound `COc1ccc2c(ncc3nc(C)n(Cc4ccc(S(N)(=O)=O)cn4)c32)n1` [Compound 72, 6-((7-methoxy-2-methyl-1H-imidazo[4,5-c][1,8]naphthyridin-1-yl)methyl)pyridine-3-sulfonamide], in data set [1], the AUC is 303 ng·h/mL, the clearance turned out to be 56 mL/min/kg, the half-life was 1.4 h and the Vd worked out at 2.9 L/kg. This compound also displayed an IC50 in data set [2] of 1.2 nM. Besides, it took 0.58 nM to reach half-maximal inhibition in data set [3] (IC50). In data set [4], it took 340 nM to reach half-maximal inhibition (IC50) and the inhibition at 20 µM turned out to be 81%.

For the compound `COc1ccc2c(ncc3nc(C)n(Cc4ccc(S(N)(=O)=O)nc4)c32)n1` [Compound 73, 5-((7-methoxy-2-methyl-1H-imidazo[4,5-c][1,8]naphthyridin-1-yl)methyl)pyridine-2-sulfonamide], in data set [1], the AUC turned out to be 267 ng·h/mL, the clearance came to 63 mL/min/kg, the half-life is 0.6 h and the Vd turned out to be 1.6 L/kg. Moreover, in data set [2], the midpoint of inhibition, the IC50, lay at 0.96 nM. In data set [3], this compound registered an IC50 of 0.36 nM. Also, in data set [4], the IC50 is 270 nM and the inhibition at 20 µM came to 81%.

As to `COc1ccc2c(ncc3nc(C4CC4)n(Cc4ccc(S(N)(=O)=O)cn4)c32)n1` [Compound 74, 6-((2-cyclopropyl-7-methoxy-1H-imidazo[4,5-c][1,8]naphthyridin-1-yl)methyl)pyridine-3-sulfonamide], in data set [1], the AUC was 138 ng·h/mL, the clearance was found to be 123 mL/min/kg, the half-life is 1.4 h and the Vd was determined as 14 L/kg. Moreover, the 50% inhibitory concentration (IC50) in data set [2] came out at 0.12 nM. Further, the IC50 in data set [3] turned out to be 0.09 nM. Also, in data set [4], inhibition was half-maximal at 85 nM (IC50) and the inhibition at 20 µM was determined as 81%.

For `COc1ccc2c(ncc3nc(CN4CCOCC4)n(Cc4ccc(S(N)(=O)=O)c(F)c4)c32)n1` [Compound 80, 2-fluoro-4-((7-methoxy-2-(morpholinomethyl)-1H-imidazo[4,5-c][1,8]naphthyridin-1-yl)methyl)benzenesulfonamide], in data set [1], the AUC was determined as 158 ng·h/mL, the clearance was 107 mL/min/kg, the half-life is 0.13 h and the Vd came to 1 L/kg. For the same compound, half-maximal inhibition in data set [2] (IC50) required 6.4 nM. The same compound had an IC50 in data set [3] of 1.8 nM. In data set [4], the IC50 amounted to 1800 nM and the inhibition at 20 µM is 75%.

Consider `COc1ccc2c(ncc3nc(CC#N)n(Cc4ccc(S(N)(=O)=O)c(F)c4)c32)n1` [Compound 82, 4-((2-(cyanomethyl)-7-methoxy-1H-imidazo[4,5-c][1,8]naphthyridin-1-yl)methyl)-2-fluorobenzenesulfonamide], for which, in data set [1], the AUC was 253 ng·h/mL, the clearance worked out at 66 mL/min/kg, the half-life was 0.86 h and the Vd was found to be 2.2 L/kg. This compound also showed an IC50 in data set [2] of 2.4 nM. In data set [3], the IC50 was found to be 0.8 nM. In addition, in data set [4], half-maximal inhibition (IC50) was put at 560 nM and the inhibition at 20 µM was 82%.

A word on the bioavailability: it is dose-corrected exposure relative to a reference, in per cent. High values mean much systemic uptake, low ones little systemic uptake. With `COc1ccc2c(ncc3[nH]c(=O)n(Cc4ccc(S(N)(=O)=O)cc4F)c32)n1` [Compound 102, 3-fluoro-4-((7-methoxy-2-oxo-2,3-dihydro-1H-imidazo[4,5-c][1,8]naphthyridin-1-yl)methyl)benzenesulfonamide], in data set [1], the AUC was found to be 657 ng·h/mL, the clearance is 26 mL/min/kg, the half-life was 5.1 h and the Vd stood at 5.2 L/kg. The compound further registered a bioavailability in data set [1] of 8.4%. Besides, the IC50 in data set [2] turned out to be 0.74 nM. In data set [3], the IC50 was determined as 0.51 nM. For the same compound, in data set [4], the IC50 was 430 nM and the inhibition at 20 µM was determined as 86%.

Consider `COc1ccc2c(ncc3c2n(Cc2c(F)cc(S(N)(=O)=O)cc2F)c(=O)n3C)n1` [Compound 114, 3,5-difluoro-4-((7-methoxy-3-methyl-2-oxo-2,3-dihydro-1H-imidazo[4,5-c][1,8]naphthyridin-1-yl)methyl)benzenesulfonamide], for which, in data set [1], the AUC was 454 ng·h/mL, the clearance worked out at 37 mL/min/kg, the half-life is 3.9 h and the Vd is 12 L/kg. The compound further displayed a bioavailability in data set [1] of 33%. In data set [2], the IC50 came to 0.23 nM. In data set [3], this compound showed an IC50 of 0.27 nM. Moreover, in data set [4], 80 nM corresponded to half-maximal inhibition (IC50) and the inhibition at 20 µM turned out to be 77%.

As to `COc1ccc2c(ncc3nnn(Cc4ccc(S(N)(=O)=O)cn4)c32)n1` [Compound 119, 6-((7-methoxy-1H-[1,2,3]triazolo[4,5-c][1,8]naphthyridin-1-yl)methyl)pyridine-3-sulfonamide], in data set [1], the AUC turned out to be 301 ng·h/mL, the clearance is 56 mL/min/kg, the half-life is 1.4 h and the Vd worked out at 4.5 L/kg. This compound also returned an IC50 in data set [2] of 1.1 nM. This compound also had an IC50 in data set [3] of 0.7 nM. For the same compound, in data set [4], the IC50 was determined as 120 nM and the inhibition at 20 µM turned out to be 83%.

Consider `COc1ccc2c(ncc3nnn(Cc4ccc(S(N)(=O)=O)c(F)c4)c32)n1` [Compound 120, 2-fluoro-4-((7-methoxy-1H-[1,2,3]triazolo[4,5-c][1,8]naphthyridin-1-yl)methyl)benzenesulfonamide], for which, in data set [1], the AUC is 260 ng·h/mL, the clearance turned out to be 65 mL/min/kg, the half-life is 2 h and the Vd is 8.9 L/kg. Besides, the IC50 in data set [2] was 4.4 nM. This compound also returned an IC50 in data set [3] of 1.78 nM. For the same compound, in data set [4], the IC50 stood at 1100 nM and the inhibition at 20 µM came out at 79%.

Turning to `COc1ccc2c(ncc3cnn(Cc4ccc(S(N)(=O)=O)c(F)c4)c32)n1` [Compound 122a, 2-fluoro-4-((7-methoxy-1H-pyrazolo[4,3-c][1,8]naphthyridin-1-yl)methyl)benzenesulfonamide], in data set [1], the AUC came to 170 ng·h/mL, the clearance worked out at 100 mL/min/kg, the half-life was 0.33 h and the Vd stood at 2 L/kg. Moreover, the IC50 in data set [2] came out at 4.3 nM. Half-maximal inhibition in data set [3] (IC50) required 1.6 nM. For the same compound, in data set [4], the IC50 amounted to 1700 nM and the inhibition at 20 µM stood at 74%.
